Laboratory results taken from ChEMBL document CHEMBL1201862, “PubChem BioAssay data set” (2004).
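Protocol summary: plate cells (96-well), add compound at 5 concentrations, incubate 48 h, interpolate endpoints linearly. GI50: concentration for 50% inhibition of growth.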 Active and inactive are the calls of the source. Rule as the data show it: active = GI50 up to about 1.1 µM and inactive = higher.

Tests used:
Experiment in all cases: NCI-60 cell line screen, 48 h
CAKI-1 = tested on: CAKI-1
HOP-62 = tested on: HOP-62
HOP-92 = tested on: HOP-92
KM12 = tested on: KM12
SF-295 = tested on: SF-295
UO-31 = tested on: UO-31
HCC 2998 = tested on: HCC 2998
IGROV-1 = tested on: IGROV-1
OVCAR-8 = tested on: OVCAR-8
LOX IMVI = tested on: LOX IMVI
OVCAR-3 = tested on: OVCAR-3
HL-60 = tested on: HL-60
SR = tested on: SR
SK-MEL-28 = tested on: SK-MEL-28
ACHN = tested on: ACHN
SK-OV-3 = tested on: SK-OV-3
A498 = tested on: A498

Measured: GI50

Nc1c(Br)c(=O)[nH]c(=O)n1COCCO
inactive: CAKI-1 > 100 µM | HOP-62 > 100 µM | HOP-92 > 100 µM | KM12 > 100 µM | SF-295 > 100 µM | UO-31 > 100 µM | HCC 2998 > 100 µM | IGROV-1 > 100 µM | OVCAR-8 > 100 µM | LOX IMVI > 100 µM | OVCAR-3 > 100 µM | HL-60 > 100 µM | SR > 100 µM | SK-MEL-28 > 100 µM | ACHN > 100 µM

COc1nc2c(OC)cccc2c(OC)c1C=O
inactive: HOP-62 22.1 µM | KM12 75.5 µM | SF-295 > 100 µM | UO-31 > 100 µM | IGROV-1 > 100 µM | OVCAR-8 > 100 µM | SK-OV-3 > 100 µM | LOX IMVI > 100 µM | OVCAR-3 > 100 µM | HL-60 > 100 µM | SK-MEL-28 > 100 µM | ACHN > 100 µM

CC(C)(C)CC(C)(C)c1cc2c(O)c(c1)Cc1cc(C(C)(C)CC(C)(C)C)cc(c1O)Cc1cc(C(C)(C)CC(C)(C)C)cc(c1O)Cc1cc(C(C)(C)CC(C)(C)C)cc(c1O)Cc1cc(C(C)(C)CC(C)(C)C)cc(c1O)C2
inactive: HOP-62 > 100 µM | HOP-92 > 100 µM | KM12 > 100 µM | SF-295 > 100 µM | UO-31 > 100 µM | HCC 2998 > 100 µM | IGROV-1 > 100 µM | OVCAR-8 > 100 µM | OVCAR-3 > 100 µM | HL-60 > 100 µM | SK-MEL-28 > 100 µM | ACHN > 100 µM

CN(C)C=C1C(Cl)=C(C=O)CC(C=O)=C1Cl
inactive: CAKI-1 11.3 µM | HOP-62 23.7 µM | HOP-92 4.2 µM | KM12 6.46 µM | SF-295 18.3 µM | UO-31 17.7 µM | HCC 2998 15.2 µM | IGROV-1 16.1 µM | OVCAR-8 3.13 µM | SK-OV-3 29.4 µM | LOX IMVI 2.19 µM | OVCAR-3 13.5 µM | HL-60 1.77 µM | SK-MEL-28 6.59 µM | ACHN 12.9 µM

Cc1ccc(C)c(N2C(=O)C(=O)C(c3nc4ccccc4s3)/C(=N/N)C2=O)c1 (stereo not drawn)
inactive: CAKI-1 > 100 µM | HOP-62 > 100 µM | HOP-92 > 100 µM | KM12 > 100 µM | UO-31 > 100 µM | HCC 2998 > 100 µM | IGROV-1 > 100 µM | SK-OV-3 > 100 µM | LOX IMVI > 100 µM | OVCAR-3 > 100 µM | HL-60 > 100 µM | SR > 100 µM | SK-MEL-28 > 100 µM | ACHN > 100 µM

CCN(CC)c1ccc(/N=N/c2ccc(-c3nc4cccnc4o3)cc2)cc1
inactive: CAKI-1 > 100 µM | HOP-62 > 100 µM | HOP-92 > 100 µM | KM12 > 100 µM | SF-295 > 100 µM | UO-31 > 100 µM | HCC 2998 55.2 µM | IGROV-1 > 100 µM | A498 > 100 µM | OVCAR-8 > 100 µM | LOX IMVI > 100 µM | OVCAR-3 > 100 µM | HL-60 > 100 µM | SK-MEL-28 > 100 µM | ACHN > 100 µM

COC(=O)C12C3C=CC(O3)C1C1C=CC2O1 (stereo not drawn)
inactive: HOP-92 > 100 µM | KM12 > 100 µM | SF-295 > 100 µM | UO-31 > 100 µM | HCC 2998 > 100 µM | IGROV-1 > 100 µM | OVCAR-8 > 100 µM | SK-OV-3 > 100 µM | OVCAR-3 > 100 µM | HL-60 > 100 µM | SR > 100 µM | SK-MEL-28 > 100 µM | ACHN > 100 µM

Cc1cc(NS(=O)(=O)c2ccc(Nc3c4ccccc4nc4c(C(=O)Nc5ccc(S(=O)(=O)N=C(N)N)cc5)cccc34)cc2)no1
inactive: CAKI-1 > 100 µM | HOP-62 > 100 µM | HOP-92 > 100 µM | KM12 > 100 µM | SF-295 > 100 µM | UO-31 > 100 µM | HCC 2998 > 100 µM | IGROV-1 > 100 µM | A498 > 100 µM | OVCAR-8 > 100 µM | SK-OV-3 > 100 µM | LOX IMVI > 100 µM | OVCAR-3 > 100 µM | SK-MEL-28 > 100 µM | ACHN > 100 µM

O=C1Nc2cccc3ncn(c23)C2=C1CCCC2
inactive: KM12 > 100 µM | SF-295 > 100 µM | UO-31 > 100 µM | HCC 2998 > 100 µM | IGROV-1 > 100 µM | OVCAR-8 > 100 µM | SK-OV-3 96.2 µM | LOX IMVI > 100 µM | HL-60 > 100 µM | SR > 100 µM | SK-MEL-28 > 100 µM | ACHN > 100 µM

COc1ccc2c(c1)CCCC1C3=NCCC3(C)CSC21 (stereo not drawn)
inactive: KM12 > 100 µM | SF-295 86.9 µM | IGROV-1 > 100 µM | OVCAR-8 59.7 µM | SK-OV-3 > 100 µM | LOX IMVI 30.2 µM | OVCAR-3 97.3 µM | HL-60 17.1 µM | SK-MEL-28 36.2 µM

CC(C)c1ccc(/C=C/c2cc(C(=O)NNC(=O)NC3CCCCC3)nc(S)n2)cc1
inactive: CAKI-1 > 100 µM | HOP-62 > 100 µM | HOP-92 > 100 µM | KM12 > 100 µM | SF-295 > 100 µM | UO-31 > 100 µM | HCC 2998 > 100 µM | IGROV-1 > 100 µM | A498 > 100 µM | OVCAR-8 > 100 µM | SK-OV-3 > 100 µM | LOX IMVI > 100 µM | OVCAR-3 > 100 µM | SK-MEL-28 > 100 µM | ACHN > 100 µM

CCC1(Br)C(=O)NC(=O)N(C2CC(O)C(CO)O2)C1N=[N+]=[N-] (stereo not drawn)
inactive: CAKI-1 > 100 µM | HOP-62 > 100 µM | HOP-92 > 100 µM | SF-295 > 100 µM | UO-31 > 100 µM | HCC 2998 > 100 µM | IGROV-1 > 100 µM | A498 > 100 µM | OVCAR-8 > 100 µM | SK-OV-3 > 100 µM | LOX IMVI > 100 µM | OVCAR-3 > 100 µM | HL-60 > 100 µM | SK-MEL-28 > 100 µM | ACHN > 100 µM

CC[P+]1(CC)CCCC1
inactive: CAKI-1 > 100 µM | HOP-62 > 100 µM | KM12 > 100 µM | SF-295 > 100 µM | UO-31 > 100 µM | HCC 2998 > 100 µM | IGROV-1 > 100 µM | A498 > 10 µM | OVCAR-8 > 100 µM | SK-OV-3 > 100 µM | LOX IMVI > 100 µM | OVCAR-3 > 100 µM | SK-MEL-28 > 100 µM | ACHN > 100 µM

C[C@@H](C1CCC2C3C(=CC(=O)[C@@]21C)[C@H](C)[C@]1(CCC(=O)O1)C1OC31)[C@H]1C[C@]2(C)O[C@@](C)(O1)OC2(C)C (stereo partly drawn)
inactive: CAKI-1 > 100 µM | HOP-92 > 100 µM | SF-295 > 100 µM | UO-31 > 100 µM | IGROV-1 > 100 µM | A498 > 100 µM | OVCAR-8 > 100 µM | SK-OV-3 > 100 µM | LOX IMVI > 100 µM | HL-60 > 100 µM | SK-MEL-28 > 100 µM | ACHN > 100 µM
